{"source": "patent US20020119141A1", "about": "“Biochemical methods that eliminate corneal scars, opacification and haze” (priority 1999, published 2002)", "tested_on": "eyes of rabbits", "description": "Fifty-two (52) healthy rabbits of the New Zealand Cross variety (26 male, 26 female) weighing 1.5 kg to 2.5 kg were individually marked for identification and were housed individually in suspended cages. The animals received a commercially available pelleted rabbit feed on a daily basis, with tap water available ad libitum.\nThe animals were divided into thirteen groups of 4 animals each (2 males, 2 femals). Two animals in each group (1 male, 1 female) were selected for pretreatment fundus photography and fluorescein angiography.\nThe fundus photography was performed by restraining the animals and visualizing the optic nerve, retinal arcades and fundus with a KOWA® RC-3 Fundus Camera loaded with Kodak Gold 200 ASA film.\nThe fluorescein angiography involved a 1.5-ml injection of 2% sterile fluorescein solution via the marginal ear vein. Approximately 30 seconds post-injection the fluorescein was visualized upon localization of the optic nerve, retinal vessels and fundus.\nThe following day, each animal was anesthetized by intravenous administration of a combination of 34 mg/kg of ketamine hydrochloride and 5-mg/kg xylazine. The eyelids were retracted using a lid speculum, and the eyes were disinfected with an iodine-povidone wash.\nThe experimental treatments administered to each animal group were as follows:\nThe day following the injections (Day 1) the 26 animals, which were subjected to the fundus photography and fluorescein angiography, were observed using the same methods as for the pre-dose examination.\nThe eyes were then surgically removed and placed in a fixture solution of 2.5% glutaraldehyde with 0.1M phosphate buffered saline at pH 7.37. Alternatively, one randomly selected rabbit was euthanized by pentobarbital injection but then fixed by intracardiac injection of the gluteraldehyde solution into the left ventricle to determine the effect of the fixation procedure on the histology findings within the enucleated eyes.\nOn Day 7, the 13 female rabbits that had been previously photographed and angiography performed were subjected to same observations following the methods previously described.\nThe remaining 26 animals were euthanized as described above 7 days after dosing. The eyes were fixed in the same manner as those, which had been fixed on day 2. Also, one randomly selected rabbit was subjected to the same intracardiac gluteraldehyde fixation procedure described hereabove for the previously randomly selected animal.\nThe eyes of the animals treated in this example were examined grossly and microscopically for evidence of treatment-related toxicities.", "note": "Where two headings read alike, the source gives them in different places."}
{"substance": "Thimerosal [BSS + Thimerisol]", "values": [{"measurement": "treatment-related toxicity of the eyes (gross and microscopic examination)", "setting": "0.0075 mg thimerosal in BSS, day 2", "value": "free of toxicity"}, {"measurement": "treatment-related toxicity of the eyes (gross and microscopic examination)", "setting": "0.0075 mg thimerosal in BSS, day 7, listed as BSS plus thimerosal", "value": "significant toxic effects"}, {"measurement": "treatment-related toxicity of the eyes (gross and microscopic examination)", "setting": "0.0075 mg thimerosal in BSS, day 7, listed as BSS+thimerosal", "value": "breakdown of the blood retinal barrier"}, {"measurement": "treatment-related toxicity of the eyes (gross and microscopic examination)", "setting": "0.025 mg thimerosal in BSS, day 2 and 7 post dose", "value": "severe treatment-related toxic effects"}, {"measurement": "toxic effects in the eyes of rabbits (conclusion)", "setting": "intravitreal injection, at the dosages tested", "value": "do cause toxic effects"}]}
